According to the supplement of paper PMC10307832:

What was measured:
Assay in all cases: relative viability (nuclei count vs DMSO), 5 days (fraction); higher = more cells survive
[1] = compound: CC[C@H](C)N1C=C(C2=C(C=C(C=C21)C3=CN=C(C=C3)N4CCNCC4)C(=O)NCC5=C(C=C(NC5=O)C)C)C [GSK126] + O=C(CCCCCCC(=O)Nc1ccccc1)NO [Vorinostat] (partner 1 µM)
How it was run: (§1)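 Lung cancer cell lines in 1536-well plates got either a single drug or a fixed anchor-drug dose together with five library-drug doses (not always all listed) in √10 steps, by pin tool, on the day after seeding. Nuclei were counted after 5 days, and relative viability is the treated-to-vehicle ratio of nuclei counts. Values are medians of duplicate plates.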

[2] = compound: CC[C@H](C)N1C=C(C2=C(C=C(C=C21)C3=CN=C(C=C3)N4CCNCC4)C(=O)NCC5=C(C=C(NC5=O)C)C)C [GSK126] + Nc1ncn([C@H]2C[C@H](O)[C@@H](CO)O2)c(=O)n1 [Decitabine] (partner 2 µM)
How it was run: as §1

[3] = compound: NS(=O)(=O)OC[C@@H]1C[C@@H](n2ccc3c(N[C@H]4CCc5ccccc54)ncnc32)C[C@@H]1O [MLN4924] + CC(C)C[C@H](NC(=O)[C@H](Cc1ccccc1)NC(=O)c1cnccn1)B(O)O [Bortezomib] (partner 0.002 µM)
How it was run: as §1

[4] = compound: C1CC(C1)(C(=O)O)C(=O)O.[NH2-].[NH2-].[Pt+2] [Carboplatin] + CCNC(=O)c1noc(-c2cc(C(C)C)c(O)cc2O)c1-c1ccc(CN2CCOCC2)cc1 [Luminespib] (partner 0.01 µM)
How it was run: as §1

Row | Cell Line | relative viability ([1]; first compound 0.08 µM) | relative viability ([1]; first compound 0.253 µM) | relative viability ([1]; first compound 0.8 µM) | relative viability ([1]; first compound 2.53 µM) | relative viability ([1]; first compound 8 µM) | relative viability ([2]; first compound 0.08 µM) | relative viability ([2]; first compound 0.253 µM) | relative viability ([2]; first compound 0.8 µM) | relative viability ([2]; first compound 2.53 µM) | relative viability ([2]; first compound 8 µM) | relative viability ([3]; first compound 0.04 µM) | relative viability ([3]; first compound 0.1265 µM) | relative viability ([3]; first compound 0.4 µM) | relative viability ([3]; first compound 1.265 µM) | relative viability ([3]; first compound 4 µM) | relative viability ([4]; first compound 0.08 µM) | relative viability ([4]; first compound 0.253 µM) | relative viability ([4]; first compound 0.8 µM) | relative viability ([4]; first compound 2.53 µM) | relative viability ([4]; first compound 8 µM)
1 | NCI-H838 | 0.747 | 0.688 | 0.659 | 0.638 | 0.69 | 0.52 | 0.492 | 0.451 | 0.508 | 0.502 | 0.807 | 0.456 | 0.315 | 0.0967 | 0.122 | 0.284 | 0.291 | 0.195 | 0.192 | 0.188
2 | NCI-H1355 | 0.635 | 0.612 | 0.667 | 0.602 | 0.657 | 0.391 | 0.334 | 0.318 | 0.336 | 0.416 | 1.1 | 1.23 | 1.12 | 0.54 | 0.178 | 0.826 | 0.814 | 0.765 | 0.588 | 0.537
3 | NCI-H1437 | 0.902 | 0.885 | 0.774 | 0.77 | 0.763 | 0.584 | 0.569 | 0.536 | 0.499 | 0.527 | 0.437 | 0.448 | 0.443 | 0.148 | 0.115 | 1.14 | 1.14 | 0.994 | 1.03 | 0.97
4 | NCI-H1650 | 0.678 | 0.546 | 0.605 | 0.431 | 0.681 | 0.437 | 0.541 | 0.522 | 0.402 | 0.495 | 0.226 | 0.194 | 0.172 | 0.182 | 0.177 | 0.212 | 0.217 | 0.189 | 0.215 | 0.196
5 | NCI-H1651 | 0.614 | 0.548 | 0.545 | 0.6 | 0.55 | 0.64 | 0.634 | 0.606 | 0.772 | 0.624 | 0.936 | 0.99 | 0.966 | 0.498 | 0.181 | 0.829 | 0.782 | 0.627 | 0.424 | 0.229
6 | NCI-H1666 | 1.15 | 1 | 0.912 | 0.978 | 1.11 | 0.731 | 0.755 | 0.755 | 0.82 | 0.726 | 0.542 | 0.491 | 0.348 | 0.183 | 0.27 | 1.02 | 1.02 | 0.814 | 0.824 | 0.702
7 | NCI-H1734 | 0.906 | 0.816 | 0.804 | 0.766 | 0.769 | 0.511 | 0.517 | 0.492 | 0.515 | 0.496 | 0.817 | 0.602 | 0.251 | 0.134 | 0.118 | 0.21 | 0.236 | 0.193 | 0.188 | 0.174
8 | NCI-H1755 | 0.8 | 0.719 | 0.74 | 0.794 | 0.58 | 0.696 | 0.68 | 0.684 | 0.662 | 0.714 | 0.898 | 0.743 | 0.443 | 0.21 | 0.166 | 0.419 | 0.7 | 0.41 | 0.595 | 0.366
9 | NCI-H1915 | 0.602 | 0.474 | 0.542 | 0.5 | 0.54 | 0.277 | 0.262 | 0.262 | 0.256 | 0.252 | 0.982 | 0.941 | 0.815 | 0.22 | 0.187 | 0.867 | 0.876 | 0.631 | 0.613 | 0.328
10 | NCI-H1975 | 0.708 | 0.676 | 0.741 | 0.645 | 0.67 | 0.427 | 0.321 | 0.431 | 0.397 | 0.377 | 0.526 | 0.452 | 0.26 | 0.169 | 0.149 | 0.227 | 0.227 | 0.17 | 0.18 | 0.113
11 | NCI-H1993 | 0.921 | 0.779 | 0.79 | 1.02 | 1.1 | 0.686 | 0.597 | 0.575 | 0.555 | 0.605 | 0.856 | 0.72 | 0.664 | 0.383 | 0.474 | 1.13 | 0.812 | 0.818 | 0.884 | 0.698
12 | NCI-H2009 | 0.822 | 0.679 | 0.714 | 0.672 | 0.771 | 0.372 | 0.334 | 0.45 | 0.403 | 0.381 | 0.889 | 0.275 | 0.27 | 0.079 | 0.0747 | 1.06 | 1.05 | 0.986 | 0.935 | 0.581
13 | NCI-H2023 | 0.962 | 0.804 | 0.533 | 0.709 | 0.712 | 0.267 | 0.232 | 0.205 | 0.209 | 0.219 | 0.927 | 0.796 | 0.113 | 0.0794 | 0.0811 | 0.774 | 0.715 | 0.668 | 0.281 | 0.172
14 | NCI-H2085 | 0.851 | 0.813 | 0.804 | 0.841 | 0.948 | 0.551 | 0.511 | 0.588 | 0.615 | 0.518 | 1.09 | 1.09 | 1.1 | 0.76 | 0.648 | 0.454 | 0.419 | 0.494 | 0.488 | 0.377
15 | NCI-H2087 | 0.847 | 0.523 | 0.652 | 0.652 | 1.15 | 0.246 | 0.272 | 0.269 | 0.293 | 0.346 | 0.746 | 0.717 | 0.468 | 0.151 | 0.154 | 0.158 | 0.168 | 0.121 | 0.138 | 0.165
16 | NCI-H2126 | 0.867 | 0.789 | 0.829 | 0.805 | 0.783 | 0.567 | 0.591 | 0.609 | 0.622 | 0.593 | 1.17 | 1.16 | 0.907 | 0.392 | 0.348 | 0.862 | 1.07 | 0.992 | 0.931 | 0.695
